# Laboratory results reported in PMC9301957 (ACS Omega, 2022).
# Assays:
# EGFR = EGFR (Homo sapiens, UniProt P00533); experiment: EGFR protein kinase; format: biochemical; details: mean ± SD of three replicates; for inhibition at 10 µM: read-out: autophosphorylation percentage inhibition at conc (10 μM), 10 μM
# AKT = AKT ELISA, downstream signaling pathway in HCT-116 cells; format: cell-based, human; details: compound at its IC50, untreated control 45.39 ng/mL
# mTOR = mTOR ELISA, downstream signaling pathway in HCT-116 cells; format: cell-based, human; details: compound at its IC50, untreated control 86.39 ng/mL
# PI3K = PI3K ELISA, downstream signaling pathway in HCT-116 cells; format: cell-based, human; details: compound at its IC50, untreated control 6.64 ng/mL
# Chain of EGFR (P00533 25-1210): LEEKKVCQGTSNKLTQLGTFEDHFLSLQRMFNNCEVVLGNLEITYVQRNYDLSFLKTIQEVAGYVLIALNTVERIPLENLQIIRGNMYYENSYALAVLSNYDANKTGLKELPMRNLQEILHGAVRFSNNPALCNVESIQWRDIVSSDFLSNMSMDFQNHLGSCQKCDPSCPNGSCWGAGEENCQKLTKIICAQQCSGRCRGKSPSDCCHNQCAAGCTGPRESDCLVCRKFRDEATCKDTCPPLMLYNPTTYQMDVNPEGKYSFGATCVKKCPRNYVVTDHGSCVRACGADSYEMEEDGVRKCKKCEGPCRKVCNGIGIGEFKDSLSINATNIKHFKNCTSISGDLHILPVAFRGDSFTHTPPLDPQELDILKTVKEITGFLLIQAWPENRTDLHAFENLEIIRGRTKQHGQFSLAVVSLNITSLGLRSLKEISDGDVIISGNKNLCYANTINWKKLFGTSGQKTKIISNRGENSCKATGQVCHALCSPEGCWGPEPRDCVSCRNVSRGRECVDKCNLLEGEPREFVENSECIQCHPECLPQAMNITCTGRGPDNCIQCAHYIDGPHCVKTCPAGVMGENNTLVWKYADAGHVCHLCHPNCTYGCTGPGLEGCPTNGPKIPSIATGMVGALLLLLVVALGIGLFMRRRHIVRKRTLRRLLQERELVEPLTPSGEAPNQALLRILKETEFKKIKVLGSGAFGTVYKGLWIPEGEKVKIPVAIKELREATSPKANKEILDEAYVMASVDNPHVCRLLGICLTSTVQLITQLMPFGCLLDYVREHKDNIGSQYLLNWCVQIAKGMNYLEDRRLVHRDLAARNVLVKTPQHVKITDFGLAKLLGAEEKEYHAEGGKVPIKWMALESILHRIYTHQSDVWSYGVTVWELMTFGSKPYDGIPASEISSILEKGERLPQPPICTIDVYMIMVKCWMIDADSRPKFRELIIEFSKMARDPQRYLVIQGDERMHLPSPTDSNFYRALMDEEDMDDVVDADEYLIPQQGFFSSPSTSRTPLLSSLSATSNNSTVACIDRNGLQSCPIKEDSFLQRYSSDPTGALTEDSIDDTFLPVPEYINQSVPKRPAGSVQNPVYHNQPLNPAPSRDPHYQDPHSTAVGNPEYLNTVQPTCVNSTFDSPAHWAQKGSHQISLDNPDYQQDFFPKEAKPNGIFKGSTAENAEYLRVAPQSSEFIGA
autophosphorylation percentage inhibition at conc (10 μM) (EGFR) [%],inhibition at 10 µM (EGFR) [%],SMILES,AKT concentration in treated HCT-116 cells (AKT) [ng/mL],mTOR concentration in treated HCT-116 cells (mTOR) [ng/mL],PI3K concentration in treated HCT-116 cells (PI3K) [ng/mL]
74.68 ± 2.47,74.7,"COc1ccc(Nc2nc(-n3nc(C)cc3C)nc(-n3nc(C)cc3C)n2)cc1 [Compound 5d, 4,6-bis(3,5-dimethyl-1H-pyrazol-1-yl)-N-(4-methoxyphenyl)-1,3,5-triazin-2-amine]",–,–,–
–,–,"Cc1cc(C)n(-c2nc(Nc3ccc(Br)cc3)nc(N3CCOCC3)n2)n1 [Compound 4f, N-(4-Bromophenyl)-4-(3,5-dimethyl-1H-pyrazol-1-yl)-6-morpholino-1,3,5-triazin-2-amine]",12.35,34.36,1.24
69.68 ± 2.01,70,"Cc1cc(C)n(-c2nc(Nc3ccc(Cl)cc3)nc(-n3nc(C)cc3C)n2)n1 [Compound 5c, N-(4-chlorophenyl)-4,6-bis(3,5-dimethyl-1H-pyrazol-1-yl)-1,3,5-triazin-2-amine]",–,–,–
